In patent US12173088B2, “Anti-microbial peptides” (priority 2018, dated 2024):
Values after ≈ are worked out from the molar mass of the structure shown. Where two headings read alike, the source gives them in different places. Peptide text beside a SMILES is read from it.

Columns and labels:
Hemolytic assay = type: cell-based, human; conditions: human
Method in brief: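 HL50 marks the peptide level lysing half of a 2% (v/v) suspension of washed human erythrocytes after 1 h at 37 °C. Released hemoglobin measured at 545 nm, scaled between PBS (0%) and Triton X-100 (2% or 1%; 100%). Selectivity index computed as HL50 over MIC.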

S. aureus USA300 = type: in vivo, Staphylococcus aureus
Protocol: Female C57BL/6 mice (6 weeks old) were purchased from Charles River. After environment adaptation, mice were induced neutropenic by administering two doses of cyclophosphamide on day 1 (150 mg/kg) and Day 4 (100 mg/kg). This cyclophosphamide administration was skipped for experiments using non-neutropenic mice (i.e., normal mice). On day 5, mice were infected with S. aureus USA300 LAC (˜2×10^6 CFU per mouse) via intraperitoneal injection (i.p.). For the treatment groups, mice were i.p. treated 2 hours post infection with peptides at a single dose of 5 mg/kg. Both positive and negative controls were included. At the end of the experiments, all animals were sacrificed according to institutional guidelines. Organs, including spleen, lung, kidney, and liver, were harvested, weighed, placed in sterile PBS and stored on ice. Harvested animal organs were subsequently homogenized using homogenizer (Omni, Kennesaw, GA). Proper dilutions, especially for untreated control groups, were made to get countable colonies. Blood agar plates were then incubated overnight at 37° C. The bacteria grown on plates were enumerated and plotted using the Graph pad Prism software.
Female C57BL/6 or Balb/c mice (6 weeks old) were purchased from Charles River. The mice were induced neutropenic by administering two doses of cyclophosphamide on day 1 (150 mg/kg) and Day 4 (100 mg/kg). On day 5, mice were infected with S. aureus USA300 (˜2×10^6 CFU per mouse) or K. pneumoniae E406-17 (˜5×10^5 CFU per mouse) via intraperitoneal injection (i.p.). For the treatment groups, mice were i.p. or intravenous (i.v.) treated 2 hours post infection with peptides at a single dose of 5, 10, or 15 mg/kg. Both positive and negative controls are used. At the end of the experiments, all animals were sacrificed according to institutional guidelines. […] The CFU of each mouse was plotted as an individual point and error bars represent the deviation within the experimental group. * p<0.05 ** p<0.01, ***p<0.001 and NS represents no significance (determined by Mann-Whitney test).

P. aeruginosa PAO1 = type: cell-based, Pseudomonas aeruginosa; conditions: PAO1
Method in brief: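 Broth microdilution in tryptic soy broth: log-phase cultures (OD600 ≈0.5) diluted to OD600 0.001, given two-fold peptide dilutions, incubated overnight at 37° C. Growth read at 630 nm.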

Toxicity to cells [1] = type: cell-based; conditions: human, MRC9 human lung fibroblasts; read-out: LC50 (the source's name)
S. aureus ΔmprF mutant = conditions: Table 17; strain ΔmprF
Protocol: (§1) The antibacterial activity of peptides was evaluated using a standard broth microdilution protocol with minor modifications (Mishra, et al. (2017) Acta Biomater., 49:316-328). In brief, logarithmic phase bacterial cultures (i.e., optical density at 600 nm≈0.5) were diluted to 0.001 OD and aliquoted 90 μL per well into a 96-well polystyrene microplate. Added 10 μL peptides per well with various concentrations, plates were incubated at 37° C., overnight. Post incubation the plates are read at 630 nm using a ChroMate® Microplate Reader (GMI). […] To study the influence of medium conditions on the antimicrobial activity of peptides against S. aureus USA300 at different pHs (6.8, 7.2, and 8.0), 150 mM sodium chloride (NaCl), 5-10% of human serum, mouse plasma, and peritoneal fluid were included into the assays.

[2] = tested on: S. aureus JE2 (wild type)
Protocol: as §1

Toxicity to cells [3] = type: cell-based; conditions: splenocytes (mouse spleen), Spleenocytes, read-out: LC50 (the source's name)
Liver microsomal assay = type: in vitro ADME; conditions: in one hour

CC(C)C[C@H](NC(=O)[C@H](CC(C)C)NC(=O)[C@H](CCCCN)NC(=O)[C@H](CC(C)C)NC(=O)CNC(=O)[C@H](CC(C)C)NC(=O)[C@H](CO)NC(=O)[C@H](CC(C)C)NC(=O)[C@H](CC(C)C)NC(=O)[C@H](CC(C)C)NC(=O)[C@H](CCCCN)NC(=O)[C@H](CC(C)C)NC(=O)CN)C(N)=O [DFT561, GLKLLLSLGLKLL] (H-GLKLLLSLGLKLL-NH2; N-terminus and C-terminus assumed)
HC50 at 1 h (Hemolytic assay; human red blood cells, 2% (v/v)): > 300 µM
Killing (S. aureus USA300; USA300, in vivo, 5 mg/kg): up to 90%
MIC PA (P. aeruginosa PAO1) (P. aeruginosa PAO1): >25 µM

CC(C)C[C@H](NC(=O)[C@H](Cc1c[nH]c2ccccc12)NC(=O)[C@H](Cc1c[nH]c2ccccc12)NC(=O)[C@@H](N)Cc1c[nH]c2ccccc12)C(=O)N[C@@H](CCCNC(=N)N)C(=O)N[C@@H](CCCNC(=N)N)C(=O)N[C@@H](CCCNC(=N)N)C(=O)N[C@@H](Cc1c[nH]c2ccccc12)C(N)=O [Horine, WWWLRRRW] (H-WWWLRRRW-NH2; N-terminus and C-terminus assumed)
HC50 at 1 hour (Hemolytic assay): > 200 µM
CC50 (Toxicity to cells [1]): > 35 µM
MIC (S. aureus ΔmprF mutant): 2 µM (≈ 2.69 µg/mL)
MIC ([2]; JE2 (wild type)): 4 µM (≈ 5.37 µg/mL)
CC50 (Toxicity to cells [3]): > 50 µM
MIC P. aeruginosa PAO1 (P. aeruginosa PAO1): 12.5 µM (≈ 16.8 µg/mL)
Degradation in liver microsomal assay (Liver microsomal assay): 5000

CN[C@H](CC(C)C)C(=O)N[C@H]1C(=O)N[C@@H](CC(N)=O)C(=O)N[C@H]2C(=O)N[C@H]3C(=O)N[C@H](C(=O)N[C@H](C(=O)O)c4cc(O)cc(O)c4-c4cc3ccc4O)[C@H](O)c3ccc(c(Cl)c3)Oc3cc2cc(c3O[C@@H]2O[C@H](CO)[C@@H](O)[C@H](O)[C@H]2O[C@H]2C[C@](C)(N)[C@H](O)[C@H](C)O2)Oc2ccc(cc2Cl)[C@H]1O [Vancomycin]
CFU decrease (S. aureus USA300; spleen, lung, kidney, liver, 10 mg/kg, positive control): 1-4 logs

CC(C)[C@H](NC(=O)[C@H](Cc1c[nH]c2ccccc12)NC(=O)[C@H](Cc1c[nH]c2ccccc12)NC(=O)[C@H](Cc1c[nH]c2ccccc12)NC(=O)[C@H](Cc1c[nH]c2ccccc12)NC(=O)[C@H](CCCNC(=N)N)NC(=O)[C@H](CCCNC(=N)N)NC(=O)[C@@H](N)CCCNC(=N)N)C(N)=O [Verine, RRRWWWWV] (H-RRRWWWWV-NH2; N-terminus and C-terminus assumed)
HC50 at 1 hour (Hemolytic assay; 2% hRBCs, read-out: LC50): > 200 µM
CC50 (Toxicity to cells [1]): > 25 µM
MIC (S. aureus ΔmprF mutant): 2 µM (≈ 2.66 µg/mL)
MIC ([2]; Table 17, strain JE2): 4 µM (≈ 5.32 µg/mL)
CC50 (Toxicity to cells [3]): > 12.5 µM
Degradation in liver microsomal assay (Liver microsomal assay): 5000
